Measurements: patent US20100041089A1, “IMPROVED METHOD FOR DETECTING CHEMICAL […]” (priority 2006, published 2010)

Test system: yeast genes (expressed mRNA)
Assay: DNA chip measurement of expressed mRNA of yeast genes after culture with a toxic chemical substance
Type: cell-based, Saccharomyces cerevisiae S288C
Procedure, shortened: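 Fluorescence ratio, treated over untreated, read by chip scanner; ratio of two or more counted significant. Cells: S288C yeast, YPD, 25° C, chemical added at log phase for 2 h at growth-inhibiting, sublethal level. Cy3/Cy5-labeled cDNA from oligo-dT-purified mRNA.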

Measured: The level of expressed mRNA in the presence of chemical substance/The level of expressed mRNA in the absence of chemical substance

O=[N+]([O-])c1cc[n+]([O-])c2ccccc12 [(5), 4-Nitroquinoline-N-oxide]
1.0: yeast gene YDL204W, cultured two hours with substance | yeast gene YDL222C, cultured two hours with substance | yeast gene YDR511W, cultured two hours with substance | yeast gene YJL171C, cultured two hours with substance | yeast gene YJR054W, cultured two hours with substance | yeast gene YKL151C, cultured two hours with substance | yeast gene YKL153W, cultured two hours with substance | yeast gene YLR194C, cultured two hours with substance | yeast gene YMR180C, cultured two hours with substance | yeast gene YOL150C, cultured two hours with substance
2.2: yeast gene YML107C, cultured two hours with the substance
1.3: yeast gene YBL048W, cultured two hours with substance | yeast gene YFL010C, cultured two hours with substance | yeast gene YGL047W, cultured two hours with substance | yeast gene YIL023C, cultured two hours with substance | yeast gene YJL151C, cultured two hours with substance | yeast gene YLR054C, cultured two hours with substance | yeast gene YLR324W, cultured two hours with substance | yeast gene YLR387C, cultured two hours with substance | yeast gene YLR460C, cultured two hours with substance | yeast gene YNL074C, cultured two hours with substance | yeast gene YNL305C, cultured two hours with substance | yeast gene YPR151C, cultured two hours with substance
1.2: yeast gene YBL107C, cultured two hours with substance | yeast gene YDR330W, cultured two hours with substance | yeast gene YDR391C, cultured two hours with substance | yeast gene YGR101W, cultured two hours with substance | yeast gene YGR154C, cultured two hours with substance | yeast gene YHR199C, cultured two hours with substance | yeast gene YMR102C, cultured two hours with substance | yeast gene YNL044W, cultured two hours with substance | yeast gene YOL036W, cultured two hours with substance | yeast gene YPL222W, cultured two hours with substance
1.4: yeast gene YDL072C, cultured two hours with substance | yeast gene YDR545W, cultured two hours with substance | yeast gene YFL006W, cultured two hours with substance | yeast gene YGR130C, cultured two hours with substance | yeast gene YIL087C, cultured two hours with substance | yeast gene YJR008W, cultured two hours with substance | yeast gene YMR295C, cultured two hours with substance | yeast gene YOL032W, cultured two hours with substance | yeast gene YOL047C, cultured two hours with substance | yeast gene YOL083W, cultured two hours with substance | yeast gene YOR019W, cultured two hours with substance
2.0: yeast gene YDR357C, cultured two hours with substance | yeast gene YDR531W, cultured two hours with substance | yeast gene YGL053W, cultured two hours with substance
1.1: yeast gene YFL024C, cultured two hours with substance | yeast gene YJL161W, cultured two hours with substance | yeast gene YKL071W, cultured two hours with substance | yeast gene YLR152C, cultured two hours with substance | yeast gene YMR067C, cultured two hours with substance | yeast gene YMR107W, cultured two hours with substance | yeast gene YMR316W, cultured two hours with substance | yeast gene YPR023C, cultured two hours with substance
2.8: yeast gene YKL139W
0.7: yeast gene YGL199C, cultured two hours with substance | yeast gene YMR090W, cultured two hours with substance | yeast gene YMR097C, cultured two hours with substance | yeast gene YPL206C, cultured two hours with substance
1.5: yeast gene YER004W, cultured two hours with substance | yeast gene YER035W, cultured two hours with substance | yeast gene YHR138C, cultured two hours with substance | yeast gene YJL057C, cultured two hours with substance | yeast gene YMR191W, cultured two hours with substance | yeast gene YOL082W, cultured two hours with substance | yeast gene YOL131W, cultured two hours with substance | yeast gene YPL196W, cultured two hours with substance
0.8: yeast gene YAL053W, cultured two hours with substance | yeast gene YER079W, cultured two hours with substance | yeast gene YER158C, cultured two hours with substance | yeast gene YER163C, cultured two hours with substance | yeast gene YJL066C, cultured two hours with substance | yeast gene YKL086W, cultured two hours with substance | yeast gene YLR149C, cultured two hours with substance | yeast gene YLR350W, cultured two hours with substance | yeast gene YML117W, cultured two hours with substance | yeast gene YMR184W, cultured two hours with substance | yeast gene YNL115C, cultured two hours with substance
1.6: yeast gene YDR411C, cultured two hours with substance | yeast gene YER106W, cultured two hours with substance | yeast gene YJL152W, cultured two hours with substance | yeast gene YKR091W, cultured two hours with substance | yeast gene YNL156C, cultured two hours with substance
0.6: yeast gene YOR197W, cultured two hours with substance | yeast gene YPL087W, cultured two hours with substance
2.7: yeast gene YHR055C (detoxification protein gene)
0.9: yeast gene YEL001C, cultured two hours with substance | yeast gene YER175C, cultured two hours with substance | yeast gene YFL032W, cultured two hours with substance | yeast gene YGL037C, cultured two hours with substance | yeast gene YGL121C, cultured two hours with substance | yeast gene YGR110W, cultured two hours with substance | yeast gene YGR221C, cultured two hours with substance | yeast gene YMR095C, cultured two hours with substance | yeast gene YNL092W, cultured two hours with substance | yeast gene YOL071W, cultured two hours with substance | yeast gene YOL162W, cultured two hours with substance
2.1: yeast gene YNL217W, cultured two hours with the substance
1.8: yeast gene YDR003W, cultured two hours with substance | yeast gene YDR539W, cultured two hours with substance | yeast gene YER044C, cultured two hours with substance | yeast gene YHR209W, cultured two hours with substance | yeast gene YOR215C, cultured two hours with substance
2.4: yeast gene YHR136C
1.9: yeast gene YKL195W, cultured two hours with substance | yeast gene YMR009W, cultured two hours with substance
1.7: yeast gene YJL082W, cultured two hours with substance | yeast gene YNL234W, cultured two hours with substance | yeast gene YNL281W, cultured two hours with substance | yeast gene YNR068C, cultured two hours with substance | yeast gene YOL117W, cultured two hours with substance
2.9: yeast gene YHR053C (detoxification protein gene)
0.5: yeast gene YIL041W, cultured two hours with substance
2.5: yeast gene YLR388W
